Measured values from article PMC9102668, “Highly Cytotoxic Osmium(II) Compounds and Their Ruthenium(II) Analogues Targeting Ovarian Carcinoma Cell Lines and Evading Cisplatin Resistance Mechanisms” (International Journal of Molecular Sciences, 2022).

Tests used:
Type in all cases: cell-based
[1] = system: SKOV3; experiment: MTT assay (CellTiter96), cytotoxic activity; conditions: 48 h incubation
Experimental: (§1) The biological behaviour of all substances was characterized by their cytotoxic activity against a panel of cell lines enabling an understanding of the structure-activity relationship. Cytotoxic activity was determined on ovarian carcinoma cell lines SKOV3 and A2780 as well as their Cisplatin resistant analogues (SKOV3cis and A2780cis) and the lung carcinoma cell line A549. Due to a low solubility in water, dmso is used as a solvent for the preparation of a dilution series in cell culture experiments. The toxic influence of dmso was determined earlier and experiments were carried out with 0.5% dmso in cell culture media and this concentration was used as reference sample in each MTT assay (details: Section 3). […] Resistance factors (RF) were determined for all substances (for IC50 values and RF of β-Hydroxydithiocinnamic acid esters L1–L18, see Tables S2 and S3, Supplementary part). All investigated ruthenium(II) compounds show lower RF values than Cisplatin on ovarian carcinoma cell lines, ranging from 0.2 to 1.5 (Table 3). Whereas the IC50 values on the non-resistant cell lines are in most cases higher than the IC50 of the reference substance, no increase of IC50 values is observed for the resistant cell lines. Contrary, eight ruthenium complexes show lower IC50 values on SKOV3cis than Cisplatin and four compounds on A2780cis. Thus, it can be concluded that these compounds are able to bypass the Cisplatin resistance mechanism in these cell lines pointing to a different mechanism of action.
(§2) Ovarian cancer cell lines were cultured under standard conditions (5% CO2, 37 °C, 90% humidity) in RPMI medium supplemented with 10% FCS, 100 U/mL penicillin and 100 µg/mL streptomycin (Life Technologies, Dreieich, Germany). Cisplatin (Sigma, Taufkirchen, Germany) was freshly dissolved at 1 mg/mL in 0.9% NaCl solution and diluted appropriately. New ruthenium(II) complexes and ligands were dissolved in dmso. Platinum-resistant A2780 and SKOV3 cells were established by repeated rounds of 3-day incubations with increasing amounts of Cisplatin starting with 0.1 µM. The concentration was doubled after 3 incubations, interrupted by recovery phases with normal medium. […] Determinations of IC50 values were carried out using the CellTiter96 non-radioactive proliferation assay (MTT assay, Promega, Mannheim, Germany). After seeding 5000 cells per well in a 96-well plate, cells were allowed to attach for 24 h and were incubated for 48 h with different concentrations of the substances ranging from 0 to 500 µM for Ruthenium and 0 to 1000 µM for ligand tests (0, 1, 10, 50, 100, 500, 1000 µm), for Cisplatin from 0 to 100 µM (0.1, 1, 5, 10, 50, 100 µM). Each measurement was done in triplicate and repeated 3 times. The proportion of viable cells was quantified by the MTT assay and after background subtraction relative values compared to the mean of medium controls were calculated. Non-linear regression analyses applying the Hill slope were run in GraphPad 5.0 software.

[2] = system: SKOV3cis; experiment: MTT assay (CellTiter96), cytotoxic activity; conditions: for IC50: Cisplatin resistant SKOV3, MTT assay, 48 h incubation; for RF SKOV3 (resistance factor): SKOV3cis vs SKOV3
Experimental: as §1, §2

[3] = system: A2780cis; experiment: MTT assay (CellTiter96), cytotoxic activity; conditions: for RF A2780 (resistance factor): A2780cis vs A2780; for IC50: Cisplatin resistant A2780, MTT assay, 48 h incubation
Experimental: as §1, §2

[4] = system: A2780; experiment: MTT assay (CellTiter96), cytotoxic activity; conditions: 48 h incubation
Experimental: as §1, §2

[5] = system: A549; experiment: MTT assay (CellTiter96), cytotoxic activity; conditions: lung carcinoma cell line, 48 h incubation
Experimental: as §1, §2

[6] = system: Cisplatin resistant cell lines; experiment: Mean IC50 (MTT assay) on Cisplatin resistant cell lines
Experimental: Thus, it can be concluded that the biological activity is mediated by a longer chain (butoxy) at the meta-position, whereas the ortho- and para-positions are more suitable with a shorter chain (ethoxy). To have a further look at the influence of the different ligand systems and substitution patterns, all β-Hydroxydithiocinnamic acid alkyl esters were tested under same conditions as their derived ruthenium(II) complexes (Figure 5B, Supplementary Table S3). […] All ligands are less cytotoxic than Cisplatin itself and therefore the metal(II) center is necessary for the high cytotoxic activity, what is in clear contrast to the literature for O,S-chelating ruthenium(II) or osmium(II) compounds with thiomaltol ligand [48, 71] but confirmed for Ru(II)/Os(II) compounds with N,N-bidentate glycosyl heterocyclic ligands. This is exemplarily shown by the comparison of mean IC50 values for Cisplatin, L14, and Ru14 (Supplementary Figure S8).
as §2

Compound	IC50 [1] [µM]	IC50 [2] [µM]	RF SKOV3 (resistance factor) [2]	RF A2780 (resistance factor) [3]	IC50 [3] [µM]	IC50 [4] [µM]	IC50 [5] [µM]	mean IC50 value on Cisplatin resistant cell lines compared with Cisplatin [6]
CCSC(=S)C=C([O][Ru][Cl])c1ccccc1.Cc1ccc(C(C)C)cc1 [Ru2, [(η^6-p-cymene)Ru(1-phenyl-3-(ethylthio)-3-thioxo-prop-1-en-1-olate-O,S)Cl]]	15.7	11.1	0.7	0.48	4.8	10	12.2	lower
CSC(=S)C=C([O][Ru][Cl])c1ccc(O)cc1.Cc1ccc(C(C)C)cc1 [Ru4, [(η^6-p-cymene)Ru(1-(4-hydroxyphenyl)-3-(methylthio)-3-thioxo-prop-1-en-1-olate-O,S)Cl]]	21.8	27.9	1.3	1	21.4	21.4	26.3	–
CCSC(=S)C=C([O][Ru][Cl])c1cccc(O)c1.Cc1ccc(C(C)C)cc1 [Ru5, [(η^6-p-cymene)Ru(1-(3-hydroxyphenyl)-3-(ethylthio)-3-thioxo-prop-1-en-1-olate-O,S)Cl]]	15.4	9.3	0.6	0.2	8.1	44.9	11.5	lower
CCSC(=S)C=C([O][Ru][Cl])c1ccc(O)cc1.Cc1ccc(C(C)C)cc1 [Ru6, [(η^6-p-cymene)Ru(1-(4-hydroxyphenyl)-3-(ethylthio)-3-thioxo-prop-1-en-1-olate-O,S)Cl]]	28.6	22.6	0.8	1	15.3	15.4	48.5	–
[(η^6-p-cymene)Os(1-(2-ethoxyphenyl)-3-(methylthio)-3-thioxo-prop-1-en-1-olate-O,S)] [Os13]	4.1	7.1	1.7	2.7	0.8	0.3	3.1	–
[(η^6-p-cymene)Os(1-(2-methoxyphenyl)-3-(methylthio)-3-thioxo-prop-1-en-1-olate-O,S)] [Os7]	8.8	0.6	0.1	5.3	2.1	0.4	6.2	–
[(η^6-p-cymene)Os(1-(3-ethoxyphenyl)-3-(methylthio)-3-thioxo-prop-1-en-1-olate-O,S)] [Os14]	10.4	12.1	1.2	4.3	1.3	0.3	5.5	–
[(η^6-p-cymene)Ru(1-(2-ethoxyphenyl)-3-(methylthio)-3-thioxo-prop-1-en-1-olate-O,S)] [Ru13]	16.9	17.4	1	1.8	4.8	2.6	28.4	–
[(η^6-p-cymene)Ru(1-(2-methoxyphenyl)-3-(ethylthio)-3-thioxo-prop-1-en-1-olate-O,S)] [Ru10]	27.7	17.7	0.6	0.8	11.7	14.6	27.7	–
[(η^6-p-cymene)Ru(1-(2-methoxyphenyl)-3-(methylthio)-3-thioxo-prop-1-en-1-olate-O,S)] [Ru7]	22.4	17.8	0.8	0.9	15	16.4	15.3	–
[(η^6-p-cymene)Ru(1-(3-butoxyphenyl)-3-(methylthio)-3-thioxo-prop-1-en-1-olate-O,S)] [Ru16]	13.2	13.2	1	1.3	6.8	5.4	4.9	–
[(η^6-p-cymene)Ru(1-(3-methoxyphenyl)-3-(ethylthio)-3-thioxo-prop-1-en-1-olate-O,S)] [Ru11]	17	16.8	1	0.8	11.8	15.6	19	–
[(η^6-p-cymene)Ru(1-(3-methoxyphenyl)-3-(methylthio)-3-thioxo-prop-1-en-1-olate-O,S)] [Ru8]	21.3	20.3	1	1.2	16.8	14.3	13.7	–
[(η^6-p-cymene)Ru(1-(4-butoxyphenyl)-3-(methylthio)-3-thioxo-prop-1-en-1-olate-O,S)] [Ru17]	17.2	17.5	1	0.7	9.8	14.2	15.1	–
[(η^6-p-cymene)Ru(1-(4-ethoxyphenyl)-3-(methylthio)-3-thioxo-prop-1-en-1-olate-O,S)] [Ru15]	7.4	3.7	0.5	0.8	4.4	5.8	16.5	lower
[(η^6-p-cymene)Ru(1-(4-methoxyphenyl)-3-(ethylthio)-3-thioxo-prop-1-en-1-olate-O,S)] [Ru12]	24	12.7	0.5	0.9	10.1	11	6.9	–
[(η^6-p-cymene)Ru(1-(4-methoxyphenyl)-3-(methylthio)-3-thioxo-prop-1-en-1-olate-O,S)] [Ru9]	25.3	12.5	0.5	0.7	16.4	24.2	39.6	–
